Experimental data reported in patent publication US20080070249A1, “Novel Activating Agent of Glucose Uptake and a Screening Method Therefor” (ASTELLAS PHARMA INC., priority 2005, published 2008).

Key:
human PGC-1β promoter = human PGC-1β promoter luciferase reporter (phPGC1β (1.0) Luc) in L6 cells; format: cell-based; conditions: final concentration of 1 μmol/L to 10 μmol/L, 24 hours
Description: phPGC1β (1.0) Luc plasmid constructed in Example 9, in accordance with the following procedures. L6 cells were cultivated in a tissue culture dish having a diameter of 10 cm to become 80% confluent. The cells were cotransfected with 5 μg of the phPGC1β (1.0) Luc plasmid and 1 μg of plasmid pCH110 (Pharmacia Biotech) using a regent for transfection (FuGENE™ T6, Roche, Cat. No. 1815091). In this connection, the plasmid pCH110 containing a β-galactosidase gene regulated by a β-actin promoter was used to standardize an efficiency of transfection. After 24 hours from the transfection, the cells were transferred to a 96-well tissue culture dish, and further cultured for 6 hours. Since it was reported that the combination of forskolin and dexamethasone induced an expression of endogenous PGC-1 in hepatocytes [J. Biol. Chem., 278: 30843 (2003)], the cells were treated with 10 μmol/L (final concentration) forskolin and 1 μmol/L dexamethasone [solvent=dimethyl sulfoxide (DMSO)] for 24 hours. After the treatment, the cells were lysed with a solution for cell lysis (LCβ; Toyo Ink, Japan), and a luciferase activity therein was measured using a PicaGene luminescence kit (Toyo Ink, Japan, 309-04321). In this connection, the activity was measured 3 times per group, and each experiment was repeated at least twice, to confirm the reproducibility. […]

differentiated L6 cells = test: activity of glucose uptake (2-deoxy-D-[U-14C] glucose) in differentiated L6 cells; format: cell-based, rat; conditions: compound at 1 μmol/L to 10 μmol/L for 24 hours, FIG. 5
Description: A tissue into which the largest amount of glucose can be incorporated in a living body is muscle. In this example and the following examples, a rat myoblast L6 was used to detect an activity of glucose uptake in vitro. L6 cells (ATCC, CRL-1458) were maintained in a Dulbecco's modified Eagle's medium (GIBCO BRL, USA, 11995-065) supplemented with 10% fetal bovine serum (JRH BIOSCIENCES, Cat. No. 12303-500M), and cultured in a humid atmosphere containing 5% CO2 at 37° C. When the L6 cells were confluent, the medium was changed to a Dulbecco's modified Eagle's medium supplemented with 2% horse serum (GIBCO, Cat. No. 16050), and further cultured for 5 days to perform an induction of differentiation.
The cells overexpressing human PGC-1β or human PGC-1α, prepared in accordance with the procedures described in Example 4, were used to measure an activity of glucose uptake. After 48 hours from the infection, the cells were rinsed with 1 mL of a KRP buffer ([…], 4.7 mmol/L KCl, 1.25 mmol/L CaCl2.2H2O, 1.25 mmol/L MgSO4.7H2O, and 5 mmol/L Na2HPO4.12H2O), and further cultured in 500 μL of KRP for 1 hour. […] Each lysate was mixed with 2 mL of a liquid scintillator (AQUASOL 2, PERKINELMER, Cat. No. 6NE9529), and an amount of radiolabeled compound (radioactivity, CPM) incorporated into the cells was measured using a liquid scintillation counter (PACKARD, B2500TR). […]

`Nc1cccc(-c2nc3cc(C(=O)c4ccccc4)ccc3[nH]2)c1` [compound A, 2-(3-aminophenyl)-5-benzoyl-(1H)-benzimidazole] was tested. Which “activating activity of the human PGC-1β promoter (reporter luciferase activity) in comparison with absence of the compound” value (human PGC-1β promoter) did it give?
Its value is at least 2 times.

And the “activity of glucose uptake in muscle cells” value (differentiated L6 cells)?
Its value is “significantly activated glucose uptake”.
